Assay results reported in patent US9493436B2, “Tyrosine phosphatase inhibitors and uses thereof to modulate the activity of enzymes involved in the pathology of Mycobacterium tuberculosis” (priority 2011, dated 2016).
Values joined by “and” are separate entries in the source; they are usually repeats but may differ in a detail not shown here. Equal entries are not always repeated. “Also recorded” adds a separate entry of the source. Where two headings read alike, the source gives them in different places.

Tests used:
HePTP = target: T1, HePTP (Homo sapiens, UniProt P35236); assay: biochemical; type: biochemical
T1 sequence (P35236 1-360): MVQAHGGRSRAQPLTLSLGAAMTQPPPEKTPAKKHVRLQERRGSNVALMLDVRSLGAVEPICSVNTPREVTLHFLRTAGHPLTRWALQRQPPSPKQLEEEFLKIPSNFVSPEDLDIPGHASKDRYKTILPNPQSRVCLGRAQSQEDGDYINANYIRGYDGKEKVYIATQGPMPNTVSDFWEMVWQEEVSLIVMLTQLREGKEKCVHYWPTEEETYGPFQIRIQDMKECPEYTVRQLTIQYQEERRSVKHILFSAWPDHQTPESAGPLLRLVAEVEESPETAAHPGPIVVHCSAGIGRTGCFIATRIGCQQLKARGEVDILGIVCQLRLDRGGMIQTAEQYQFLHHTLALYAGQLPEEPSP

mPTPB = target: T2, mPTPB (Mycobacterium tuberculosis, UniProt I6WXK4); assay: biochemical; type: biochemical
T2 construct: The full-length mPTPB with a N-terminal His6-tag was expressed and purified; His6 (N); made in house; host or cells: E. coli BL21/DE3 (pET28b-mPTPB)
T2 sequence (I6WXK4 1-276): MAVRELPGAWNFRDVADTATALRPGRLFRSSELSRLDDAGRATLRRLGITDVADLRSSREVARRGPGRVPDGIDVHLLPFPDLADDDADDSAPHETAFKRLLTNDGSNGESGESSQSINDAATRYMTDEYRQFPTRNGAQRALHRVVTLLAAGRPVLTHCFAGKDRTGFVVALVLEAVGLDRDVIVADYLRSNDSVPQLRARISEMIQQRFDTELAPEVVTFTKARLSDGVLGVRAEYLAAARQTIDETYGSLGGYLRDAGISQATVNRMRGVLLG

YopH = YopH (UniProt P15273); type: biochemical; settings: read-out: IC50 (μM) YopH
Chain of YopH (P15273 whole entry, looked up): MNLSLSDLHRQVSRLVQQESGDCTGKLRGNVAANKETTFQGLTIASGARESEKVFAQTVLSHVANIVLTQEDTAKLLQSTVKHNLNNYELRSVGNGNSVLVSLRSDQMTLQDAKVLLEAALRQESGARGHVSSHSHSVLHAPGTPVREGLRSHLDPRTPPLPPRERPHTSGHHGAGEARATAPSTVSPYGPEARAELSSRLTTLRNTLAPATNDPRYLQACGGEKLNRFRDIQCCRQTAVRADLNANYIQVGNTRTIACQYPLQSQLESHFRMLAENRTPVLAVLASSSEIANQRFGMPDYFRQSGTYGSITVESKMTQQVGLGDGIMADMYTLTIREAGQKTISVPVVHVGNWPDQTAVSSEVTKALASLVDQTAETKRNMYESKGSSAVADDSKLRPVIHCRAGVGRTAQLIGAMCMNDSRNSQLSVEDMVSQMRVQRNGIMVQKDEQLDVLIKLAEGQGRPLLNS

[1] = Oral and intravenous pharmacokinetics in mice; type: in vivo
Experimental: Oral and intravenous (IV) pharmacokinetics were determined for compounds L01-Z06, L01-Z08 and L01-Z09 in mice. Drugs were administered by a single IV injection (5 mg/kg) or oral gavage (25 mg/kg) in 20% hydroxypropyl-b-cyclodextrin/2% diethanolamine and blood samples were collected at 0.5, 1, 3, 6, 9 and 24 hours later. All three compounds were readily administered by both IV and oral routes. […] Drug levels peaked at […] after IV injection, or […] after oral gavage. Based on these parameters, all three compounds are classified as highly permeable with moderate-slow clearance rates.

## Cn1c(-c2ccccc2C(F)(F)F)c(I)c2cc(C(=O)O)c(O)cc21 [Compound 207a, 6-hydroxy-3-iodo-1-methyl-2-(2-(trifluoromethyl)phenyl)-1H-indole-5-carboxylic acid]
HePTP
  IC50: 86 ± 6 µM
mPTPB; kinetic analyses, Lineweaver-Burk plot
  mode of mPTPB inhibition: Non-competitive inhibition; also recorded: reversible and noncompetitive inhibitor
mPTPB; pH 7.0, 25° C.
  Ki: 1.21 ± 0.04 µM
mPTPB; pNPP substrate, pH 7.0, 25° C., read-out: IC50 (μM) against mPTPB
  IC50: 1.2 µM and 1.18 µM
mPTPB; panel of 11 PTPs
  selectivity for mPTPB over the other ten PTPs: 47 fold
YopH
  IC50: 220 ± 20 µM

## O=C(O)c1cc2c(C#Cc3cccc(C(F)(F)F)c3)c(-c3ccccc3)oc2cc1O [32 (L01Z08)]
[1]; mice
  clearance ranking among the three compounds: slowest clearance of the three
[1]; mice, IV 5 mg/kg
  Clearance % LPF: 28.9 % LPF
[1]; mice, PO 25 mg/kg
  Clearance % LPF: 38.2 % LPF
  Vdss: 6.58 L/kg
  clearance: 20.602 mL/min/kg
[1]; mice, after oral delivery
  time active levels (sufficient to inhibit target activity by 80% in cells) maintained: 18.5 h
[1]; mouse, blood, iv, 5 mg/kg, mice, IV 5 mg/kg
  Tmax: 0.5 h
[1]; mouse, blood, mice, IV 5 mg/kg
  half-life: 4.1 h
[1]; mouse, blood, mice, IV 5 mg/kg, data normalized to 25 mg/kg dose, read-out: Clearance (converted)
  clearance: 15.6 mL/min/kg
[1]; mouse, blood, mice, IV 5 mg/kg, data normalized to 25 mg/kg dose, read-out: Cmax (ng/mL)
  Cmax: 10200 ng/mL
[1]; mouse, blood, mice, IV 5 mg/kg, data normalized to 25 mg/kg dose, read-out: Cmax nM
  Cmax: 25500 nM
[1]; mouse, blood, mice, IV 5 mg/kg, read-out: Vdss
  Vd: 5.53 L/kg
[1]; mouse, blood, mice, PO 25 mg/kg
  half-life: 3.7 h
[1]; mouse, blood, mice, PO 25 mg/kg vs IV 5 mg/kg, read-out: Absolute Bioavailability (oral)
  bioavailability: 75.6%
[1]; mouse, blood, mice, PO 25 mg/kg, read-out: Cmax (ng/mL)
  Cmax: 2880 ng/mL
[1]; mouse, blood, mice, PO 25 mg/kg, read-out: Cmax nM
  Cmax: 7210 nM
[1]; oral, 24 hours
  oral pK values over the 24 hour duration of the assay: remain relatively constant
